# Measured values taken from publication PMC9501377, “New Diarylamine KV10.1 Inhibitors and Their Anticancer Potential” (Pharmaceutics, 2022).
# What was measured:
# [1] = system: tumour spheroids of Colo357 cells; parameters: method as in PMID 33808994; conditions: cited from earlier work
# KV10.1 (Eag1) = molecular target: T1, KV10.1 (Eag1) (Homo sapiens, UniProt O95259); experiment: Whole-cell patch-clamp on stably transfected HEK-293 cells expressing KV10.1; assay type: cell-based; conditions: HEK293; 50 μM, HEK-293 cells, patch-clamp, mean ± SEM
# T1 construct: expressed in transfected cells; host or cells: HEK-293 (stably transfected)
# T1 sequence (O95259 1-962 isoform O95259-2): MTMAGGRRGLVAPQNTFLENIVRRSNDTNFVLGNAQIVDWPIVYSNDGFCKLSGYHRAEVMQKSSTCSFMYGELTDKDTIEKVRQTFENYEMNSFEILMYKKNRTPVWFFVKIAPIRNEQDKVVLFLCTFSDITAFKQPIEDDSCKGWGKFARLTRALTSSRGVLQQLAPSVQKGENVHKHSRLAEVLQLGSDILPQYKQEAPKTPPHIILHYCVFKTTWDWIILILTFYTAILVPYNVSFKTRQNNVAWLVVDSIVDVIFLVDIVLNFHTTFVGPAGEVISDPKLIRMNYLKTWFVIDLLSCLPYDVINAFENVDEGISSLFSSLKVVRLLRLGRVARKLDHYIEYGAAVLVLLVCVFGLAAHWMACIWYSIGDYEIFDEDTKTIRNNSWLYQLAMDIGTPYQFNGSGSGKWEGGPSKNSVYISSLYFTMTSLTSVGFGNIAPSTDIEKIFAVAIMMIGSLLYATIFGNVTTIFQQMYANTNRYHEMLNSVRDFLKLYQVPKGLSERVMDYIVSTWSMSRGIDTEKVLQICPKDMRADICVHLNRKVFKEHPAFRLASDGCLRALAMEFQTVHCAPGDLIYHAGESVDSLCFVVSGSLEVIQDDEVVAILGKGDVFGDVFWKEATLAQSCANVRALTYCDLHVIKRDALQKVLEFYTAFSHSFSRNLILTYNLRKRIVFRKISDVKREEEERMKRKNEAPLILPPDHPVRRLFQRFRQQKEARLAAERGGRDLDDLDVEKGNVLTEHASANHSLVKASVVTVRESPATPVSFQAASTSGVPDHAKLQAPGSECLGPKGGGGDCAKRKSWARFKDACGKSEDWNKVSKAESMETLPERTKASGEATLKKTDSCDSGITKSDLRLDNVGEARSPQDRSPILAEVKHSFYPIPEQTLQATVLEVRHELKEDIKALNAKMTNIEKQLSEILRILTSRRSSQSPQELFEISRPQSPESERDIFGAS
# Procedure: For whole-cell patch-clamp measurements, stably transfected HEK-293 cells expressing KV10.1 [26, 27, 28] were grown in DMEM with 10% FCS and 300 µg/mL Zeocin on glass coverslips coated with fibronectin. All experiments were conducted at room temperature under perfusion by gravity with extracellular solution (160 mM NaCl, 2.5 mM KCl, 2 mM CaCl2, 1 mM MgCl2, 10 mM Hepes pH 7.4 with NaOH, 8 mM glucose). Pipettes were made from #1 glass capillaries (WPI) and had 1–3 MΩ resistance. The intracellular solution contained 100 mM KCl, 45 mM N-methyl-D-glucamine, 10 mM 1,2-bis(o-aminophenoxy)ethane-N,N,N′,N′-tetraacetic acid (BAPTA), 10 mM Hepes pH 7.35. Stimulation was applied and data were acquired with an EPC10 Plus amplifier (HEKA Elektronik) controlled with Patch Master software. Compounds were applied with an 8-channel fast solution exchanger (ALA). Compounds were prepared to a stock concentration of 10 mM in DMSO. The control solution contained 0.5% DMSO. Stimuli consisted of 500 ms depolarizations to +40 mV.
# All electrophysiological data are presented as means ± SEM of n ≥ 3 independent experiments unless otherwise indicated. Oocyte data were analysed using pClamp Clampfit 10.4 (Molecular Devices, Downingtown, PA, USA) and OriginPro 9 (Originlab, Northampton, MA, USA) or GraphPad Prism 8 software (GraphPad Software, Inc., San Diego, CA, USA). Patch-clamp data analysis was performed using FitMaster (HEKA Electronics), IgorPro (Wavemetrics, Inc., Lake Oswego, OR, USA) and GraphPad Prism 9 (GraphPad Software, Inc., San Diego, CA, USA). The Dunnett test and one-way ANOVA were performed to calculate the significance of the induced inhibition compared to the control (p < 0.05).
inhibition at 50 µM (KV10.1 (Eag1)) [%],SMILES,apoptosis in tumour spheroids of Colo357 cells [1]
–,CN(C)CCCOc1ccc(Nc2ccc(C(F)(F)F)cc2[N+](=O)[O-])cc1 [Compound 2],induced significant apoptosis
44.6 ± 8.6,"O=[N+]([O-])c1cc(C(F)(F)F)ccc1Nc1ccc(OCC(O)CN2CCC(O)(COc3ccc(Cl)c(Cl)c3)CC2)cc1 (stereo not shown) [Compound 16a, 4-((3,4-Dichlorophenoxy)methyl)-1-(2-hydroxy-3-(4-((2-nitro-4-(trifluoromethyl)phenyl)amino)phenoxy)propyl)piperidin-4-ol]",–
60.7 ± 9.6,"COc1ccc(OCC2(O)CCN(CC(O)COc3ccc(Nc4ccc(C(F)(F)F)cc4[N+](=O)[O-])cc3)CC2)cc1 (stereo not shown) [Compound 16b, 1-(2-Hydroxy-3-(4-((2-nitro-4-(trifluoromethyl)phenyl)amino)phenoxy)propyl)-4-((4-methoxyphenoxy)methyl)piperidin-4-ol]",–
26.8 ± 10.1,"O=C(NC1CCN(CC(O)COc2ccc(Nc3ccc(C(F)(F)F)cc3[N+](=O)[O-])cc2)CC1)c1ccc(Cl)c(Cl)c1 (stereo not shown) [Compound 16c, 3,4-Dichloro-N-(1-(2-hydroxy-3-(4-((2-nitro-4-(trifluoromethyl)phenyl)amino)phenoxy)propyl)piperidin-4-yl)benzamide]",–
